Experimental data reported in article PMC6695681, “Hydrophobic Interactions Drive Binding between Vascular Endothelial Growth Factor-A (VEGFA) and Polyphenolic Inhibitors” (Molecules, 2019).
Several values for one entry are separate records, joined by “and”; a condition that tells them apart may be missing. Identical values can stand only once. Like-named read-outs stand apart in the source and are kept apart here.

Legend:
VEGF-165 [1] = biological target: T1, VEGF-165 (Homo sapiens, UniProt P15692); experiment: Far-UV circular dichroism of VEGF secondary structure upon binding EGCG
T1 construct: purchased ReliaTech GmbH (Wolfenbüttel, Germany)
T1 sequence (P15692 27-191 isoform P15692-4 limits assumed): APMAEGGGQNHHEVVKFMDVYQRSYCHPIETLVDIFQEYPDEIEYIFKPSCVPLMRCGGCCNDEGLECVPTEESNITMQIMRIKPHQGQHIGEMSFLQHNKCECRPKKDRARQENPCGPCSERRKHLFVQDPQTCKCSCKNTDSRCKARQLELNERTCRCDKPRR
Description: Circular dichroism (CD) in the far UV range (180–260 nm) was used to determine whether the secondary structure of VEGF changed upon binding EGCG. Circular dichroism spectra were measured for a fixed concentration of VEGF-165 (0.22 nmoles in 50 µL) with increasing amounts of EGCG (0, 1.36, 5.45 and 10.91 nmoles) and the spectra obtained are shown in Figure 4. Analysis of the spectra indicated the predominant features in the secondary structure of VEGF165 were random coil (unordered) and β-sheet, followed by smaller percentages of α-helix and turns. After adding EGCG at a mole ratio of 1:50 VEGF:EGCG, the VEGF secondary structure was altered with increases of 65% and 33% in α-helix and turns respectively, a reduction in the percentage of β-strands of 88%, and only a 3% reduction in the predominant unordered structure.
Circular Dichroism (CD) spectra were recorded using a Jasco J-715 spectropolarimeter (Easton, MD, USA) over a wavelength range of 185–260 nm in PBS solvent with 1% ethanol, using a quartz demountable CD cell with a path length of 0.1 mm. Averages of three runs of the protein spectra were collected a 37 °C at a scan speed of 20 nm/min and a band width of 1.0 nm. To account for any background effect the protein in buffer alone, the EGCG molecule in buffer alone, and the buffer alone were also measured. After background correction the spectra were converted to units of delta epsilon. Dichroweb analysis server http://dichroweb.cryst.bbk.ac.uk was used to analyse and estimate on line the secondary structure contents.

VEGF = biological target: T2, VEGF (Homo sapiens, UniProt P15692); experiment: SDS-page gels of VEGF treated with polyphenol, reducing and non-reducing conditions
T2 construct: purchased ReliaTech GmbH (Wolfenbüttel, Germany)
T2 sequence (P15692 27-191 isoform P15692-4 limits assumed): T1 sequence (P15692 27-191 isoform P15692-4 limits assumed)
Excerpt: Binding occurs when intermolecular forces are established between VEGF and the phenolic ligand. […] Therefore, the interactions between VEGF and inhibitor polyphenols are likely to be non-covalent in nature. These forces could be the result of various interactions between the protein, the ligand, and the environment and are likely to be predominantly based on electrostatic (H bonding) and hydrophobic forces.
Figure 2 SDS-page gels of control (VEGF) and treatments (VEGF and apple procyanidin fraction dp4 or EGCG under (A) reducing conditions and (B) Non-reducing conditions.

VEGF-165 [2] = biological target: T1, VEGF-165; experiment: Surface plasmon resonance binding of polyphenols to immobilised VEGF165; conditions: for dissociation rate at 20 °C compared with 37 °C: 20 °C vs 37 °C, Figure 3B; for koff: read-out: dissociation rate constant kd;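 on all read-outs here: running buffer PBST with 1% DMSO, sensorgrams double referenced against a VEGF-free reference cell and blank injections, kinetics fitted to a 1:1 Langmuir binding model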
[3] = tested on: VEGF-dependent VEGFR2 activation in HUVEC cells; design: method as in Cerezo et al. [1]; conditions: ref Cerezo et al. [1], read-out: IC50 (concentration causing 50% inhibition of VEGF activation in HUVEC cells), cited from earlier work
[4] = PBST, 37 °C (control runs of Table 2)
[5] = PBST, 37 °C, read-out: association rate constant ka
[6] = PBST, 37 °C, read-out: equilibrium constant KD

In the case of `O=C(O[C@@H]1Cc2c(O)cc(O)cc2O[C@@H]1c1cc(O)c(O)c(O)c1)c1cc(O)c(O)c(O)c1` [Epigallocatechin gallate (EGCG), Epigallocatechin gallate], the “position of the negative band in CD far UV spectra” value (VEGF-165 [1]; EGCG mixed with VEGF, 201 nm for VEGF alone) is reported as 211 nm, the “time taken by conformational changes in VEGF” value (VEGF-165 [1]; after mixing with EGCG) is reported as “less than 90 s” and the “increase in turns of VEGF secondary structure” value (VEGF-165 [1]; mole ratio 1:50 VEGF:EGCG) is reported as 33%. The “increase in α-helix of VEGF secondary structure” value (VEGF-165 [1]; mole ratio 1:50 VEGF:EGCG) was 65%, the “reduction in the percentage of β-strands of VEGF” value (VEGF-165 [1]; mole ratio 1:50 VEGF:EGCG) was 88% and the “reduction in the predominant unordered structure of VEGF” value (VEGF-165 [1]; mole ratio 1:50 VEGF:EGCG) was 3%. The “change in migration of treated VEGF on SDS page gels” value (VEGF) was “no change in migration”, the “dissociation rate at 20 °C compared with 37 °C” value (VEGF-165 [2]) was “higher at 20 °C than at 37 °C” and the kd (VEGF-165 [2]; PBST + 0.5 M NaCl, 37 °C) was 0.00037 ± 4e-05 s⁻¹. It also gave a Kd (VEGF-165 [2]; PBST + 0.5 M NaCl, 37 °C, read-out: KD) of 60 nM, a kon (VEGF-165 [2]; PBST + 0.5 M NaCl, 37 °C, read-out: ka) of 5180 ± 92 M⁻¹ s⁻¹ and a kd (VEGF-165 [2]; PBST + 1 M NaCl, 37 °C) of 0.00033 ± 4e-05 s⁻¹. The Kd (VEGF-165 [2]; PBST + 1 M NaCl, 37 °C, read-out: KD) was 35 nM, the kon (VEGF-165 [2]; PBST + 1 M NaCl, 37 °C, read-out: ka) was 6500 ± 260 M⁻¹ s⁻¹ and the kd (VEGF-165 [2]; PBST + 1 M urea, 37 °C) was 0.00036 ± 2.1e-05 s⁻¹. The Kd (VEGF-165 [2]; PBST + 1 M urea, 37 °C, read-out: KD) was 71 nM, the kon (VEGF-165 [2]; PBST + 1 M urea, 37 °C, read-out: ka) was 5160 ± 100 M⁻¹ s⁻¹ and the kd (VEGF-165 [2]; PBST + 10% ethanol, 37 °C) was 0.0017 ± 7e-05 s⁻¹. The Kd (VEGF-165 [2]; PBST + 10% ethanol, 37 °C, read-out: KD) was 810 nM, the kon (VEGF-165 [2]; PBST + 10% ethanol, 37 °C, read-out: ka) was 2460 ± 60 M⁻¹ s⁻¹ and the kd (VEGF-165 [2]; PBST + 10 M ethylene glycol, 37 °C) was 0.00026 ± 5.2e-05 s⁻¹. For the same molecule, the Kd (VEGF-165 [2]; PBST + 10 M ethylene glycol, 37 °C, read-out: KD) was 420 nM, the kon (VEGF-165 [2]; PBST + 10 M ethylene glycol, 37 °C, read-out: ka) was 796 ± 45 M⁻¹ s⁻¹ and the kd (VEGF-165 [2]; PBST + 30% ethanol, 37 °C) was 0.0002 ± 5e-05 s⁻¹. For the same molecule, the Kd (VEGF-165 [2]; PBST + 30% ethanol, 37 °C, read-out: KD) was 470 nM, the kon (VEGF-165 [2]; PBST + 30% ethanol, 37 °C, read-out: ka) was 482 ± 21 M⁻¹ s⁻¹ and the ka (VEGF-165 [2]; [4]) was 5184 ± 64 M⁻¹ s⁻¹ and 6052 ± 64 M⁻¹ s⁻¹. For the same molecule, the kd (VEGF-165 [2]; [4]) was 0.00068 ± 2.9e-06 s⁻¹ and 0.00088 ± 5.2e-05 s⁻¹ and 0.00072 ± 5e-05 s⁻¹, the Kd (VEGF-165 [2]; PBST, 37 °C (control runs of Table 2), read-out: KD) was 110 nM and 170 nM and 140 nM and the kon (VEGF-165 [2]; PBST, 37 °C (control runs of Table 2), read-out: ka) was 6147 ± 52 M⁻¹ s⁻¹. The kon (VEGF-165 [2]; [5]) was 6300 M⁻¹ s⁻¹, the koff (VEGF-165 [2]; PBST, 37 °C) was 0.000625 s⁻¹ and the Kd (VEGF-165 [2]; [6]) was 112 nM. The IC50 ([3]; listed as EGCG) was 88 nM and the IC50 [3] was 90 nM.

For `Oc1cc(O)c2c(c1)OC(c1ccc(O)c(O)c1)C(O)C2c1c(O)cc(O)c2c1OC(c1ccc(O)c(O)c1)C(O)C2c1c(O)cc(O)c2c1OC(c1ccc(O)c(O)c1)C(O)C2` (stereo not shown) [Procyanidin Dp3], the “dissociation rate at 20 °C compared with 37 °C” value (VEGF-165 [2]) was “higher at 20 °C than at 37 °C”, the kon (VEGF-165 [2]; [5]) was 2910 M⁻¹ s⁻¹ and the koff (VEGF-165 [2]; PBST, 37 °C) was 0.00093 s⁻¹. The Kd (VEGF-165 [2]; [6]) was 351 nM and the IC50 [3] was 780 nM.

Work on `Oc1cc(O)c2c(c1)OC(c1ccc(O)c(O)c1)C(O)C2c1c(O)cc(O)c2c1OC(c1ccc(O)c(O)c1)C(O)C2` (stereo not shown) [Procyanidin Dp2] yielded a kon (VEGF-165 [2]; [5]) of 548 M⁻¹ s⁻¹, a koff (VEGF-165 [2]; PBST, 37 °C) of 0.001 s⁻¹ and a Kd (VEGF-165 [2]; [6]) of 637 nM. The IC50 [3] was 52600 nM.

Work on `Oc1cc(O)c2c(c1)O[C@H](c1ccc(O)c(O)c1)[C@H](O)C2` [(-) Epicatechin] yielded a kon (VEGF-165 [2]; [5]) of 323 M⁻¹ s⁻¹, a koff (VEGF-165 [2]; PBST, 37 °C) of 0.000696 s⁻¹ and a Kd (VEGF-165 [2]; [6]) of 2710 nM.

Molecule `O=C(O)c1cc(O)c(O)c(O)c1` [Gallic acid] has a kon (VEGF-165 [2]; [5]) of 166 M⁻¹ s⁻¹, a koff (VEGF-165 [2]; PBST, 37 °C) of 0.000391 s⁻¹ and a Kd (VEGF-165 [2]; [6]) of 5520 nM.

In the case of `O=c1c(O)c(-c2ccc(O)c(O)c2)oc2cc(O)c(O)c(O)c12` [Quercetagetin], the kon (VEGF-165 [2]; [5]) is reported as 858 M⁻¹ s⁻¹, the koff (VEGF-165 [2]; PBST, 37 °C) is reported as 0.000826 s⁻¹ and the Kd (VEGF-165 [2]; [6]) is reported as 934 nM. For the same molecule, the IC50 [3] was 100 nM.

With `Oc1cc(O)c2c(c1)O[C@H](c1ccc(O)c(O)c1)[C@@H](O)C2` [(+) Catechin] the kon (VEGF-165 [2]; [5]) was 131 M⁻¹ s⁻¹, the koff (VEGF-165 [2]; PBST, 37 °C) was 0.00399 s⁻¹ and the Kd (VEGF-165 [2]; [6]) was 25000 nM and 24600 nM. The IC50 [3] was 215000 nM.

For `O=c1c(O)c(-c2cc(O)c(O)c(O)c2)oc2cc(O)cc(O)c12` [Myricetin], the Kd (VEGF-165 [2]; [6]) is given as 4460 nM, the IC50 ([3]; listed as myricetin) is given as 121 nM and the IC50 [3] is given as 120 nM.

In the case of `Oc1cc(O)c2c(c1)OC(c1ccc(O)c(O)c1)C(O)C2c1c(O)cc(O)c2c1OC(c1ccc(O)c(O)c1)C(O)C2c1c(O)cc(O)c2c1OC(c1ccc(O)c(O)c1)C(O)C2c1c(O)cc(O)c2c1OC(c1ccc(O)c(O)c1)C(O)C2c1c(O)cc(O)c2c1OC(c1ccc(O)c(O)c1)C(O)C2c1c(O)cc(O)c2c1OC(c1ccc(O)c(O)c1)C(O)C2c1c(O)cc(O)c2c1OC(c1ccc(O)c(O)c1)C(O)C2c1c(O)cc(O)c2c1OC(c1ccc(O)c(O)c1)C(O)C2c1c(O)cc(O)c2c1OC(c1ccc(O)c(O)c1)C(O)C2` (stereo not shown) [Procyanidin Dp9], the “dissociation rate at 20 °C compared with 37 °C” value (VEGF-165 [2]) is reported as “higher at 20 °C than at 37 °C” and the Kd (VEGF-165 [2]; [6]) is reported as 341 nM.

With `O=C(O[C@@H]1Cc2c(O)cc(O)cc2O[C@@H]1c1ccc(O)c(O)c1)c1cc(O)c(O)c(O)c1` [Epicatechin gallate (ECG), Epicatechin gallate] the kon (VEGF-165 [2]; [5]) was 8240 M⁻¹ s⁻¹, the koff (VEGF-165 [2]; PBST, 37 °C) was 0.000633 s⁻¹ and the Kd (VEGF-165 [2]; [6]) was 35 nM and 34.8 nM. For the same molecule, the IC50 [3] was 160 nM.
